Reference: ChEMBL document CHEMBL4483862, “Open-source discovery of chemical leads for next-generation chemoprotective antimalarials” (2018)

Tested on: Plasmodium berghei
Test: Luciferase/luciferin-expressing antifolate-resistant parasites were used to infect a culture of HepG2 cells that were pre-incubated with compounds. Infected hepatocytes emit light due to the luciferase reaction. Assay results are presented as the percent inhibition of light emission compared to control. […]
Assay type: functional
Conditions: sporozoite; for IC90: read-out: LUCIFERASE INFECTION ASSAY - IC90
[1] = read-out: LUCIFERASE INFECTION ASSAY - IC50

Row | Compound | IC90 | IC50 [1] | further results
1 | Cn1c(=O)c(C2=NN(C(=O)c3cccs3)C(c3ccco3)C2)c(-c2ccccc2)c2cc(Cl)ccc21 (stereo not drawn) | > 10 µM | – | IC50 (FFLUC_HILL_SLOPE 47.1, FFLUC_R_SQUARED 0.757, PBLUC_HILL_SLOPE 11.3, PBLUC_R_SQUARED 0.251, read-out: LUCIFERASE INFECTION ASSAY - IC50): 9.29 µM
2 | Cc1[nH]c2ccccc2c1C(=O)COc1ccc(N(C)S(=O)(=O)c2ccccc2F)cc1 | > 10 µM | – | IC50 (PBLUC_HILL_SLOPE 1.92, PBLUC_R_SQUARED 0.479, read-out: LUCIFERASE INFECTION ASSAY - IC50): 5.26 µM
3 | CCOC(=O)c1ccc(S(=O)(=O)N2CCC(N(C)C)CC2)cc1 | > 10 µM | > 10 µM | –
4 | N#Cc1ccccc1S(=O)(=O)NC(=O)Cn1cc(-c2cccc(F)c2)nn1 | > 8.56 µM | > 8.56 µM | –
5 | CCOC(=O)C1=C(CSc2nc(-c3ccc(C)cc3)c(-c3ccc(C)cc3)[nH]2)NC(=O)NC1C (stereo not drawn) | > 10 µM | > 10 µM | –
6 | O=c1c2ccccc2[nH]c2ccc(Oc3ncnc4ccsc34)cc12 | 0.558 µM | – | IC50 (FFLUC_HILL_SLOPE 10.4, FFLUC_R_SQUARED 0.538, PBLUC_HILL_SLOPE 5.72, PBLUC_R_SQUARED 0.733, read-out: LUCIFERASE INFECTION ASSAY - IC50): 0.38 µM
7 | c1cc2c(cc1-c1cn3c(-c4ccc5c(c4)OCO5)cnc3cn1)OCO2 | 8.22 µM | – | IC50 (HEPG2TOX_HILL_SLOPE 1.25, HEPG2TOX_R_SQUARED 0.883, PBLUC_HILL_SLOPE 2.72, PBLUC_R_SQUARED 0.694, read-out: LUCIFERASE INFECTION ASSAY - IC50): 3.66 µM
8 | O=C(CC1Sc2ccccc2NC1=O)NCCCn1ccc2ccccc21 (stereo not drawn) | 3.47 µM | – | IC50 (HEPG2TOX_HILL_SLOPE 0.0908, HEPG2TOX_R_SQUARED 0.322, PBLUC_HILL_SLOPE 2.29, PBLUC_R_SQUARED 0.881, read-out: LUCIFERASE INFECTION ASSAY - IC50): 1.33 µM
9 | COc1cc(CNCCCN(C)C)cc(Cl)c1OCc1ccc(F)cc1 | > 8.66 µM | – | IC50 (HEPG2TOX_HILL_SLOPE 10.1, HEPG2TOX_R_SQUARED 0.531, PBLUC_HILL_SLOPE 2.5, PBLUC_R_SQUARED 0.598, read-out: LUCIFERASE INFECTION ASSAY - IC50): 5.14 µM
10 | O=C1NC(=O)N2CSCC12 (stereo not drawn) | > 20.9 µM | > 20.9 µM | –
11 | Cc1sc2nc(-c3cccnc3)nc(NCCc3ccc(S(N)(=O)=O)cc3)c2c1C | > 10 µM | – | IC50 (PBLUC_HILL_SLOPE 1.71, PBLUC_R_SQUARED 0.31, read-out: LUCIFERASE INFECTION ASSAY - IC50): 7.09 µM
12 | CCNC(=O)C(C)Nc1ncnc2scc(-c3ccc(OC)cc3)c12 (stereo not drawn) | 9.59 µM | – | IC50 (FFLUC_HILL_SLOPE 11.3, FFLUC_R_SQUARED 0.625, HEPG2TOX_HILL_SLOPE 3.17, HEPG2TOX_R_SQUARED 0.973, PBLUC_HILL_SLOPE 4.87, PBLUC_R_SQUARED 0.647, read-out: LUCIFERASE INFECTION ASSAY - IC50): 6.11 µM
13 | CCCCNC(=O)COc1ccc2[nH]c3ccccc3c(=O)c2c1 | 8.21 µM | – | IC50 (PBLUC_HILL_SLOPE 1.51, PBLUC_R_SQUARED 0.724, read-out: LUCIFERASE INFECTION ASSAY - IC50): 1.92 µM
14 | COc1ccc(OCC(O)CNCC23CC4CC(CC(C4)C2)C3)c(C(C)(C)C)c1 (stereo not drawn) | 9.84 µM | – | IC50 (PBLUC_HILL_SLOPE 14.7, PBLUC_R_SQUARED 0.42, read-out: LUCIFERASE INFECTION ASSAY - IC50): 8.48 µM
15 | CCc1nc(SCC(=O)Nc2nsc(-c3ccc(C(C)(C)C)cc3)n2)c2c3c(sc2n1)CCC3 | > 10 µM | – | IC50 (FFLUC_HILL_SLOPE 7.48, FFLUC_R_SQUARED 0.446, read-out: LUCIFERASE INFECTION ASSAY - IC50): > 10 µM
16 | COc1ccc2c(c1)[nH]c1c(N(C)CCc3ccc(OC)c(OC)c3)ncnc12 | > 8.41 µM | – | IC50 (HEPG2TOX_HILL_SLOPE 1.05, HEPG2TOX_R_SQUARED 0.856, PBLUC_HILL_SLOPE 1.55, PBLUC_R_SQUARED 0.53, read-out: LUCIFERASE INFECTION ASSAY - IC50): 4.47 µM
17 | COc1ccc(-c2ccc3nnc(-c4cscn4)n3c2)c(C)c1 | > 10 µM | > 10 µM | –
18 | CCc1ccccc1NC(=O)C(C)SCc1ccccc1 (stereo not drawn) | > 11 µM | – | IC50 (PBLUC_HILL_SLOPE 11.9, PBLUC_R_SQUARED 0.654, read-out: LUCIFERASE INFECTION ASSAY - IC50): 9.84 µM
19 | CCOCCCNC(=O)/C(C#N)=C/c1ccc([N+](=O)[O-])o1 | > 10 µM | – | IC50 (PBLUC_HILL_SLOPE 1.42, PBLUC_R_SQUARED 0.135, read-out: LUCIFERASE INFECTION ASSAY - IC50): > 10 µM
20 | CC(C)NC(=O)C1(C)CCN1C(=O)c1ccc(-c2ccccc2)cc1 (stereo not drawn) | > 9.81 µM | – | IC50 (PBLUC_HILL_SLOPE 1.28, PBLUC_R_SQUARED 0.251, read-out: LUCIFERASE INFECTION ASSAY - IC50): > 9.81 µM
21 | CCOC(=O)c1sc(S(C)(=O)=O)c2c1CC(C)(C)CC2=O | > 9.99 µM | – | IC50 (HEPG2TOX_HILL_SLOPE 8.99, HEPG2TOX_R_SQUARED 0.709, PBLUC_HILL_SLOPE 5.08, PBLUC_R_SQUARED 0.0136, read-out: LUCIFERASE INFECTION ASSAY - IC50): > 9.99 µM
22 | COc1cnc(-c2ccccn2)nc1SCc1ccccc1 | > 10.7 µM | 9.29 µM | –

Row | Compound | IC90 | IC50 [1] | further results
23 | CCOC(=O)C1=C(C)NC(C)=C(C(=O)OCC)C1c1ccc(Cl)cc1Cl | > 8.29 µM | – | IC50 (PBLUC_HILL_SLOPE 1.65, PBLUC_R_SQUARED 0.211, read-out: LUCIFERASE INFECTION ASSAY - IC50): > 8.29 µM
24 | Cc1ccc2nc(NC(=O)c3ccccc3C(F)(F)F)c(C(=O)NCC(C)C)n2c1 | 7.86 µM | – | IC50 (HEPG2TOX_HILL_SLOPE 8.05, HEPG2TOX_R_SQUARED 0.91, PBLUC_HILL_SLOPE 18.7, PBLUC_R_SQUARED 0.209, read-out: LUCIFERASE INFECTION ASSAY - IC50): 6.99 µM
25 | C#CCSc1nnc(-c2ccc(C(C)(C)C)cc2)n1-c1cccc(C(F)(F)F)c1 | > 7.94 µM | > 7.94 µM | –
26 | Cc1ccc(CSc2ccc([N+](=O)[O-])c3nonc23)cc1 | > 11 µM | – | IC50 (HEPG2TOX_HILL_SLOPE 7.3, HEPG2TOX_R_SQUARED 0.39, read-out: LUCIFERASE INFECTION ASSAY - IC50): > 11 µM
27 | CCN(CC)S(=O)(=O)c1cccc(-c2nnc(SCC(=O)N3CCc4ccccc43)n2-c2ccccc2)c1 | > 10 µM | > 10 µM | –
28 | CC1(C)CC(=O)c2cnc(SCC(=O)Nc3ccc(F)cc3F)nc2C1 | > 8.74 µM | > 8.74 µM | –
29 | Cc1cc(C(=O)C(C)OC(=O)C2=COCCO2)c(C)n1-c1ccc(Cl)cc1 (stereo not drawn) | > 10 µM | 6.48 µM | –
30 | COc1cc(OC)cc(C(=O)Nc2nc3ccc(C)cn3c2C(=O)NC2CCCC2)c1 | 6.19 µM | – | IC50 (HEPG2TOX_HILL_SLOPE 8.61, HEPG2TOX_R_SQUARED 0.625, PBLUC_HILL_SLOPE 3.28, PBLUC_R_SQUARED 0.589, read-out: LUCIFERASE INFECTION ASSAY - IC50): 3.16 µM
31 | COc1ccc(C(=O)C2CCN(C(=O)C3CC(=O)N(c4ccc(C)c(F)c4)C3)CC2)cc1 (stereo not drawn) | > 10 µM | – | IC50 (PBLUC_HILL_SLOPE 15.1, PBLUC_R_SQUARED 0.128, read-out: LUCIFERASE INFECTION ASSAY - IC50): 9.94 µM
32 | CC(OC(=O)c1ccccc1Nc1ccc(F)cc1)C(=O)N1CCCC1 (stereo not drawn) | 9.97 µM | – | IC50 (PBLUC_HILL_SLOPE 20.8, 17.7, PBLUC_R_SQUARED 0.125, 0.439, read-out: LUCIFERASE INFECTION ASSAY - IC50): 8.95 µM
33 | COc1ccc(-c2cnc3cnc(-c4cccs4)cn23)cc1 | 8.31 µM | – | IC50 (PBLUC_HILL_SLOPE 3.03, PBLUC_R_SQUARED 0.723, read-out: LUCIFERASE INFECTION ASSAY - IC50): 4.02 µM
34 | Cc1nc(NCCCn2ccnc2)c2c(-c3cccs3)csc2n1 | > 10 µM | – | IC50 (PBLUC_HILL_SLOPE 2.38, PBLUC_R_SQUARED 0.267, read-out: LUCIFERASE INFECTION ASSAY - IC50): 6.39 µM
35 | Cc1cc(Cl)ccc1NC(=O)c1cn(C)nc1C(F)(F)F | > 10 µM | > 10 µM | –
36 | CCOc1ccc(C(C)=O)cc1CSc1nnc(-c2ccc(F)cc2)c2ccccc12 | > 10 µM | > 10 µM | –
37 | NC(=O)c1cc(-c2ccccc2)sc1NC(=O)Nc1ccccc1F | > 10 µM | 9.4 µM | –
38 | N#Cc1ccc(S(=O)(=O)Nc2cc(C(F)(F)F)cc(C(F)(F)F)c2)c(Cl)c1 | 5.49 µM | – | IC50 (FFLUC_HILL_SLOPE 10.5, FFLUC_R_SQUARED 0.0508, HEPG2TOX_HILL_SLOPE 1.91, HEPG2TOX_R_SQUARED 0.922, PBLUC_HILL_SLOPE 2.28, PBLUC_R_SQUARED 0.661, read-out: LUCIFERASE INFECTION ASSAY - IC50): 2.09 µM
39 | CC(=C(C#N)C#N)c1ccc2c(c1)OCCO2 | > 10 µM | > 10 µM | –
40 | CN(CC(=O)Nc1ccc(OC(F)(F)F)cc1)Cc1cc([N+](=O)[O-])ccc1O | 3.33 µM | – | IC50 (HEPG2TOX_HILL_SLOPE 2.38, HEPG2TOX_R_SQUARED 0.828, PBLUC_HILL_SLOPE 9.41, PBLUC_R_SQUARED 0.824, read-out: LUCIFERASE INFECTION ASSAY - IC50): 2.64 µM
41 | Cc1nc(-c2ccccc2)sc1C(=O)OC(C)C(=O)N1CCNC1=O (stereo not drawn) | > 10 µM | > 10 µM | –
42 | O=C(Cn1c(=O)oc2ccccc21)N1CCCC1c1nc2ccccc2s1 (stereo not drawn) | > 10 µM | – | IC50 (PBLUC_HILL_SLOPE 7.81, PBLUC_R_SQUARED 0.364, read-out: LUCIFERASE INFECTION ASSAY - IC50): 8.38 µM
43 | Clc1ccc(Sc2ncnc3ccsc23)cc1 | 9.97 µM | – | IC50 (PBLUC_HILL_SLOPE 15.3, PBLUC_R_SQUARED 0.133, read-out: LUCIFERASE INFECTION ASSAY - IC50): 8.63 µM
44 | CNc1snc(C)c1C(=O)NCc1csc(-c2ccccc2)n1 | 4.69 µM | – | IC50 (HEPG2TOX_HILL_SLOPE 1.65, HEPG2TOX_R_SQUARED 0.956, PBLUC_HILL_SLOPE 1.96, PBLUC_R_SQUARED 0.757, read-out: LUCIFERASE INFECTION ASSAY - IC50): 1.53 µM
